≈ marks a conversion by molar mass, not a printed value. Where two headings read alike, the source gives them in different places.
Key:
[1] = system: Staphylococcus aureus; assay: Efficacy in Staph. aureus infection of the mouse; type: in vivo, Maus; conditions: mouse infected with Staphylococcus aureus
[2] = system: Bacteroides fragilis; assay: MIC, agar dilution test (Multipoint-Inokulator Denley, Isosensitest-Agar); type: cell-based
[3] = system: Bact. thetaiotaomicron; assay: as above; type: cell-based; conditions: Bacteroides thetaiotaomicron, DSM2079, Stamm DSM 2079, read-out: MHK-Werte
[4] = system: Clostridium perfringens; assay: microbe, parasite or virus in culture; type: cell-based; conditions: read-out: MHK-Werte
[5] = DSM2151, Stamm DSM 2151, Isosensitest-Agar, read-out: MHK-Werte
[6] = Stamm ES 25, Isosensitest-Agar, read-out: MHK-Werte

Row | Structure (SMILES) | Wirksamkeit in der Staph. aureus-Infektion an der Maus ([1]; p.o.) | Wirksamkeit in der Staph. aureus-Infektion an der Maus ([1]; s.c.) | MIC [3] | other results
1 | CC(=O)CCN1CCC[C@H]2CN(c3c(F)cc4c(=O)c(C(=O)O)cn(C5CC5)c4c3Cl)C[C@H]21 [Beispiel 29A, 8-Chlor-1-cyclopropyl-6-fluor-1,4-dihydro-4-oxo-7-([S,S]-2-[3-oxo-1-butyl]-2,8-diazabicyclo[4.3.0]non-8-yl)-3-chinolincarbonsäure] | 5 mg/kg | 5 mg/kg | – | –
2 | CC(=O)CCN1CCC[C@H]2CN(c3c(F)cc4c(=O)c(C(=O)O)cn(C5CC5)c4c3F)C[C@H]21 [Beispiel 27, 1-Cyclopropyl-6,8-difluor-1,4-dihydro-4-oxo-7-([S,S]-2-[3-oxo-1-butyl]-2,8-diazabicyclo[4.3.0]non-8-yl)-3-chinolincarbonsäure] | 10 mg/kg | 2,5 mg/kg | – | –
3 | O=C(O)c1cn(C2CC2)c2cc(N3CCNCC3)c(F)cc2c1=O [Ciprofloxacin] | 80 mg/kg | 80 mg/kg | 8 µg/mL (≈ 24.1 µM) | MIC ([2]; DSM2151, read-out: MHK-Werte): 4 µg/mL (≈ 12.1 µM); MIC ([2]; read-out: MHK-Werte): 8 µg/mL (≈ 24.1 µM)
4 | CN1CCC2CN(c3c(F)cc4c(=O)c(C(=O)O)cn(C5CC5)c4c3Cl)CC21 (stereo not shown) [B] | – | – | 2 µg/mL (≈ 4.93 µM) | MIC [2, 5]: 0.5 µg/mL (≈ 1.23 µM); MIC [2, 6]: 1 µg/mL (≈ 2.46 µM); MIC [4]: 0.5 µg/mL (≈ 1.23 µM)
5 | N#CCCN1CCC[C@H]2CN(c3c(F)cc4c(=O)c(C(=O)O)cn(C5CC5)c4c3Cl)C[C@H]21 [Beispiel 33, 8-Chlor-7-([S,S]-2-[2-cyanoethyl]-2,8-diazabicyclo[4.3.0]non-8-yl)-1-cyclopropyl-6-fluor-1,4-dihydro-4-oxo-3-chinolincarbonsäure] | 10 mg/kg | 5 mg/kg | – | –
6 | O=C(O)c1cn(C2CC2)c2c(Cl)c(N3C[C@@H]4CCCN[C@@H]4C3)c(F)cc2c1=O [A, 8-Chlor-1-cyclopropyl-7-([S,S]-2,8-diazabicyclo[4.3.0]non-8-yl)-6-fluor-1,4-dihydro-4-oxo-3-chinolincarbonsäure] | – | – | 0.5 µg/mL (≈ 1.23 µM) | MIC [2, 5]: 0.25 µg/mL (≈ 0.616 µM); MIC [2, 6]: 0.25 µg/mL (≈ 0.616 µM)
7 | COC(=O)C=C(C(=O)OC)N1CCC[C@H]2CN(c3c(F)cc4c(=O)c(C(=O)O)cn(C5CC5)c4c3Cl)C[C@H]21 [Beispiel 35, 8-Chlor-1-cyclopropyl-7-[2-(1,2-bis-methoxycarbonyl-vinyl)-1S,6S-2,8-diazabicyclo[4.3.0]non-8-yl]-6-fluor-1,4-dihydro-4-oxo-3-chinolincarbonsäure] | 2,5 mg/kg | 2,5 mg/kg | – | –
8 | CC(=O)CCN1CCO[C@H]2CN(c3c(F)cc4c(=O)c(C(=O)O)cn(C5CC5)c4c3F)C[C@H]21 (racemic) [Beispiel 31, 1-Cyclopropyl-6,8-difluor-1,4-dihydro-4-oxo-7-(cis-5-[3-oxo-1-butyl]-2-oxa-5,8-diazabicyclo[4.3.0]non-8-yl)-3-chinolincarbonsäure] | 10 mg/kg | 10 mg/kg | – | –

Reference: patent publication EP0550903A1, “Quinolone- and naphthyridone carboxylic acid derivatives as antibacterial agents” (BAYER AG, priority 1992, dated 1993)
